These results are taken from PMC6412362 (2019).

SMILES strings stand for the structures.

For experiment [1], the system named is AG3(T2AG3)3 (DNA, G4) AGGGTTAGGGTTAGGGTTAGGG
Put plainly: CD melting at 290 nm. To be noted: 100 mM KCl, 20 mM potassium phosphate; PBS pH 6.8; 6 μM as printed for solutions; derived from two Tm.

In experiment [2] the test system is (T2G5T)4 (DNA, G4) TTGGGGGT
Put plainly: G4-FID fluorescent intercalator displacement. To be noted: 100 mM KCl, 20 mM potassium phosphate; PBS pH 6.8, 25 °C; thiazole orange displaced.

The test system of experiment [3] is AG3(T2AG3)3 (DNA, G4) AGGGTTAGGGTTAGGGTTAGGG
Description: fluorimetric titration, ligand fluorescence, Hill fit. The following applies: 100 mM KCl, 20 mM potassium phosphate; 25 °C; 1 μM ligand, DNA 0-3 μM; apparent; Hill n ≈ 2.

For experiment [4] the test system is unchanged. Put plainly: G4-FID fluorescent intercalator displacement. To be noted: 100 mM KCl, 20 mM potassium phosphate; PBS pH 6.8, 25 °C; thiazole orange displaced.
The test system of experiment [5] is 5GC (DNA, duplex) GCGCGCGCGC
Put plainly: G4-FID fluorescent intercalator displacement. The following applies: 100 mM KCl, 20 mM potassium phosphate; PBS pH 6.8, 25 °C; thiazole orange displaced.

For experiment [6], the system named is (G4T4G4)2 (DNA, G4) GGGGTTTTGGGG
Description: UV-Vis titration. To be noted: 100 mM KCl, 20 mM potassium phosphate, PBS pH 6.8, 25 °C.

In experiment [7] the test system is AG3(T2AG3)3 (DNA, G4) AGGGTTAGGGTTAGGGTTAGGG
Put plainly: UV-Vis titration. To be noted: 100 mM KCl, 20 mM potassium phosphate; PBS 0.1 mM EDTA pH 6.8, 25 °C; 2 μM ligand; apparent.

For experiment [8], the system named is 5GC (DNA, duplex) GCGCGCGCGC
Put plainly: UV-Vis titration. The following applies: 100 mM KCl, 20 mM potassium phosphate; PBS 0.1 mM EDTA pH 6.8, 25 °C; 2 μM ligand; apparent.

The term ΔTm denotes the change in melting temperature against a reference sample.

As for `C[n+]1ccc(-c2c3nc(c(-c4cc[n+](C)cc4)c4ccc([nH]4)c(-c4cc[n+](C)cc4)c4nc(c(-c5cc[n+](C)cc5)c5ccc2[nH]5)C=C4)C=C3)cc1`, the ΔTm in experiment [1] was found to be 7.0 °C. Further, the DC50 in experiment [2] was 1.17 ± 0.20 µM; in experiment [4], 1.07 ± 0.09 µM; in experiment [5] it was 0.94 ± 0.20 µM. Besides, the KD in experiment [3] is 0.29 µM. In addition, the binding result in experiment [6] (red shift 13 nm) is “yes”.

With `C[n+]1ccc(Sc2cc3c(cc2Sc2cc[n+](C)cc2)-c2nc-3nc3nc(nc4[n-]c(nc5[n-]c(n2)c2cc(Sc6cc[n+](C)cc6)c(Sc6cc[n+](C)cc6)cc52)c2cc(Sc5cc[n+](C)cc5)c(Sc5cc[n+](C)cc5)cc42)-c2cc(Sc4cc[n+](C)cc4)c(Sc4cc[n+](C)cc4)cc2-3)cc1.[Zn+2]`, the KD result in experiment [7] was “(9.58 ± 0.09) × 10^−6 M”; in experiment [3], 0.54 µM; in experiment [8] it was “(1.28 ± 0.17) × 10^−5 M”. In addition, the DC50 in experiment [2] amounted to 1.84 ± 0.03 µM; in experiment [4] it was 1.95 ± 0.26 µM; in experiment [5], 1.93 ± 0.48 µM. The binding result in experiment [6] (2 μM ligand, red shift 17 nm) was “yes”.

Turning to `COc1cc[n+](-c2cc3c(cc2-[n+]2ccc(OC)cc2)-c2nc-3nc3nc(nc4[n-]c(nc5[n-]c(n2)c2cc(-[n+]6ccc(OC)cc6)c(-[n+]6ccc(OC)cc6)cc52)c2cc(-[n+]5ccc(OC)cc5)c(-[n+]5ccc(OC)cc5)cc42)-c2cc(-[n+]4ccc(OC)cc4)c(-[n+]4ccc(OC)cc4)cc2-3)cc1.[Zn+2]`, the shift in melting temperature (ΔTm) in experiment [1] was determined as 11.8 °C. Further, the results for the KD result in experiment [7], in experiment [3] and in experiment [8] were “(7.61 ± 0.11) × 10^−8 M”, 0.074 µM and “(4.74 ± 0.13) × 10^−4 M”, respectively. The DC50 in experiment [2] came out at 1.08 ± 0.08 µM; in experiment [4], 1.04 ± 0.28 µM; in experiment [5], 1.30 ± 0.21 µM. Besides, the binding result in experiment [6] (2 μM ligand, red shift 15 nm) is reported as “yes”.
